Holding throughout (assay type): cell-based
Experiment [1] relates to Staphylococcus aureus JC-1. The experiment in a line: Minimum inhibitory concentration against Staphylococcus aureus JC-1. The settings on record: JC1.
Experiment [2] relates to Klebsiella pneumoniae KC-1. The experiment in a line: Minimum inhibitory concentration against Klebsiella pneumoniae KC-1. The settings on record: KC1.
Another experiment concerns Escherichia coli JC-2. The experiment in a line: Minimum inhibitory concentration against Escherichia coli JC-2. The settings on record: JC2.
Experiment [3] relates to Pseudomonus aeruginosa GN1036. Description: Minimum inhibitory concentration against Pseudomonus aeruginosa GN1036. The conditions noted are these: Pseudomonas aeruginosa.
Experiment [4] has as its system Pseudomonus aeruginsoa Y-1. The experiment in a line: Minimum inhibitory concentration against Pseudomonus aeruginsoa Y-1. The settings on record: Pseudomonas aeruginosa, Y1.
In the next experiment the test system is Proteus vulgaris GN-76. Description: Minimum inhibitory concentration against Proteus vulgaris GN-76. The conditions noted are these: GN76.

Converted amounts (≈) assume the structure as drawn.

By MIC is commonly meant the lowest concentration that inhibits growth of the organism. The low end stands for greater potency, the high end for weaker potency. With `CC(=O)Oc1ccc(C(=O)O/N=C(\C(=O)N[C@@H]2C(=O)N3C(C(=O)O)=C(CSc4nnc(C)s4)CS[C@H]23)c2coc(N)n2)cc1OC(C)=O` [Example 6, 7β-[2-(2-aminooxazol-4-yl)-2-Z-(3,4-diacetoxybenzoyloxyimino)acetamido]-3-(2-methyl-1,3,4-thiadiazol-5-yl)thiomethyl-3-cephem-4-carboxylic acid], the MIC is 3.12 µg/mL (≈ 4.35 µM) in experiment [1]; 0.05 µg/mL (≈ 0.0697 µM) in experiment [2]; 0.2 µg/mL (≈ 0.279 µM) in the experiment on Escherichia coli JC-2; 0.39 µg/mL (≈ 0.543 µM) in experiment [3]; 0.1 µg/mL (≈ 0.139 µM) in experiment [4]; 0.2 µg/mL (≈ 0.279 µM) in the experiment on Proteus vulgaris GN-76.
Consider `CC(=O)OCC1=C(C(=O)O)N2C(=O)[C@@H](NC(=O)/C(=N\OCC(=O)c3ccc(OC(C)=O)c(OC(C)=O)c3)c3coc(N)n3)[C@H]2SC1` [Example 1, 7β-[2-(2-aminooxazol-4-yl)-2-Z-(3,4-diacetoxybenzoylmethoxyimino)acetamido]cephalosporanic acid], for which the MIC is 3.12 µg/mL (≈ 4.73 µM) in experiment [1]; 0.2 µg/mL (≈ 0.303 µM) in experiment [2]; 0.78 µg/mL (≈ 1.18 µM) against Escherichia coli JC-2; 0.78 µg/mL (≈ 1.18 µM) in experiment [3]; 0.1 µg/mL (≈ 0.152 µM) in experiment [4]; 1.56 µg/mL (≈ 2.37 µM) against Proteus vulgaris GN-76.
Take `CC(=O)Oc1cc(C(=O)O/N=C(\C(=O)N[C@@H]2C(=O)N3C(C(=O)O)=C(CSc4nnnn4CC(=O)O)CS[C@H]23)c2coc(N)n2)cc(OC(C)=O)c1OC(C)=O` [Example 10, 7β-[2-(2-aminooxazol-4-yl)-2-Z-(3,4,5-triacetoxybenzoyloxyimino)acetamido]-3-(1-carboxymethyl-1H-tetrazol-5-yl)thiomethyl-3-cephem-4-carboxylic acid]: the minimum inhibitory concentration (MIC) in experiment [1] worked out at 6.25 µg/mL (≈ 7.78 µM); in experiment [2], 0.2 µg/mL (≈ 0.249 µM); in the experiment with Escherichia coli JC-2, 0.05 µg/mL (≈ 0.0622 µM); in experiment [3], 0.39 µg/mL (≈ 0.485 µM); in experiment [4] it was 0.1 µg/mL (≈ 0.124 µM); against Proteus vulgaris GN-76 it was 0.05 µg/mL (≈ 0.0622 µM).
For `CC(=O)Oc1ccc(C(=O)CO/N=C(\C(=O)N[C@@H]2C(=O)N3C(C(=O)O)=C(CSc4nnnn4C)CS[C@H]23)c2coc(N)n2)cc1OC(C)=O` [Example 2, 7β-[2-(2-aminooxazol-4-yl)-2-Z-(3,4-diacetoxybenzoylmethoxyimino)acetamido]-3-(1-methyl-1H-tetrazol-5-yl)thiomethyl-3-cephem-4-carboxylic acid], the minimum inhibitory concentration (MIC) came to 3.12 µg/mL (≈ 4.36 µM) in experiment [1]; 0.05 µg/mL (≈ 0.0699 µM) in experiment [2]; 0.2 µg/mL (≈ 0.279 µM) in the experiment with Escherichia coli JC-2; 0.2 µg/mL (≈ 0.279 µM) in experiment [3]; 0.05 µg/mL (≈ 0.0699 µM) in experiment [4]; 1.56 µg/mL (≈ 2.18 µM) in the experiment on Proteus vulgaris GN-76.
Take `CO/N=C(\C(=O)N[C@@H]1C(=O)N2C(C(=O)O)=C(COC(C)=O)CS[C@H]12)c1csc(N)n1` [Cefotaxime, reference compound]: the MIC in experiment [1] came out at 6.25 µg/mL (≈ 13.7 µM); in the experiment with Escherichia coli JC-2, 0.1 µg/mL (≈ 0.22 µM); in experiment [3], 12.5 µg/mL (≈ 27.4 µM); in experiment [4], 12.5 µg/mL (≈ 27.4 µM); in the experiment on Proteus vulgaris GN-76, 0.05 µg/mL (≈ 0.11 µM).
Consider `CC(=O)OCC1=C(C(=O)O)N2C(=O)[C@@H](NC(=O)/C(=N\OC(=O)c3ccc(OC(C)=O)c(OC(C)=O)c3)c3coc(N)n3)[C@H]2SC1` [Example 4, 7β-[2-(2-aminooxazol-4-yl)-2-Z-(3,4-diacetoxybenzoyloxyimino)acetamido]cephalosporanic acid], for which the MIC in experiment [1] is 1.56 µg/mL (≈ 2.42 µM); in experiment [2] it was 0.2 µg/mL (≈ 0.31 µM); against Escherichia coli JC-2 it was 0.2 µg/mL (≈ 0.31 µM); in experiment [3], 0.78 µg/mL (≈ 1.21 µM); in experiment [4] it was 0.1 µg/mL (≈ 0.155 µM); in the experiment with Proteus vulgaris GN-76, 0.39 µg/mL (≈ 0.604 µM).
Take `CC(=O)Oc1ccc(C(=O)O/N=C(\C(=O)N[C@@H]2C(=O)N3C(C(=O)O)=C(CSc4nnnn4CC(=O)O)CS[C@H]23)c2coc(N)n2)cc1OC(C)=O` [Example 7, 7β-[2-(2-aminooxazol-4-yl)-2-Z-(3,4-diacetoxybenzoyloxyimino)acetamido]-3-(1-carboxymethyl-1H-tetrazol-5-yl)thiomethyl-3-cephem-4-carboxylic acid]: the MIC in experiment [1] is 12.5 µg/mL (≈ 16.8 µM); in experiment [2], < 0.05 µg/mL; against Escherichia coli JC-2 it was 0.05 µg/mL (≈ 0.0671 µM); in experiment [3], 0.05 µg/mL (≈ 0.0671 µM); in experiment [4], < 0.05 µg/mL; in the experiment with Proteus vulgaris GN-76, 0.1 µg/mL (≈ 0.134 µM).
For the molecule `CCOC(=O)Oc1ccc(C(=O)O/N=C(\C(=O)N[C@@H]2C(=O)N3C(C(=O)O)=C(CSc4nnnn4C)CS[C@H]23)c2coc(N)n2)cc1OC(=O)OCC` [Example 9, 7β-[2-(2-aminooxazol-4-yl)-2-Z-(3,4-diethoxycarbonyloxybenzoyloxyimino)acetamido]-3-(1-methyl-1H-tetrazol-5-yl)thiomethyl-3-cephem-4-carboxylic acid], the MIC in experiment [1] is 3.12 µg/mL (≈ 4.1 µM); in experiment [2] it was 0.05 µg/mL (≈ 0.0656 µM); with Escherichia coli JC-2 it was 0.2 µg/mL (≈ 0.263 µM); in experiment [3] it was 0.2 µg/mL (≈ 0.263 µM); in experiment [4], 0.05 µg/mL (≈ 0.0656 µM); against Proteus vulgaris GN-76 it was 0.2 µg/mL (≈ 0.263 µM).
`CC(=O)Oc1ccc(C(=O)O/N=C(\C(=O)N[C@@H]2C(=O)N3C(C(=O)O)=C(CSc4nnnn4C)CS[C@H]23)c2coc(N)n2)cc1OC(C)=O` [Example 5, 7β-[2-(2-aminooxazol-4-yl)-2-Z-(3,4-diacetoxybenzoyloxyimino)acetamido]-3-(1-methyl-1H-tetrazol-5-yl)thiomethyl-3-cephem-4-carboxylic acid]: the MIC is 1.56 µg/mL (≈ 2.22 µM) in experiment [1]; 0.2 µg/mL (≈ 0.285 µM) in experiment [2]; 0.39 µg/mL (≈ 0.556 µM) in the experiment with Escherichia coli JC-2; 0.39 µg/mL (≈ 0.556 µM) in experiment [3]; 0.1 µg/mL (≈ 0.143 µM) in experiment [4]; 0.39 µg/mL (≈ 0.556 µM) against Proteus vulgaris GN-76.
Take `CC(=O)Oc1cc(C(=O)O/N=C(\C(=O)N[C@@H]2C(=O)N3C(C(=O)O)=C(CSc4nnnn4C)CS[C@H]23)c2coc(N)n2)cc(OC(C)=O)c1OC(C)=O` [Example 8, 7β-[2-(2-aminooxazol-4-yl)-2-Z-(3,4,5-triacetoxybenzoyloxyimino)acetamido]-3-(1-methyl-1H-tetrazol-5-yl)thiomethyl-3-cephem-4-carboxylic acid]: the MIC was determined as 1.56 µg/mL (≈ 2.05 µM) in experiment [1]; 0.1 µg/mL (≈ 0.132 µM) in experiment [2]; 0.1 µg/mL (≈ 0.132 µM) in the experiment with Escherichia coli JC-2; 0.39 µg/mL (≈ 0.513 µM) in experiment [3]; 0.1 µg/mL (≈ 0.132 µM) in experiment [4]; 0.39 µg/mL (≈ 0.513 µM) in the experiment with Proteus vulgaris GN-76.
As to `CC(=O)Oc1ccc(C(=O)CO/N=C(\C(=O)N[C@@H]2C(=O)N3C(C(=O)O)=C(CSc4nnnn4CC(=O)O)CS[C@H]23)c2coc(N)n2)cc1OC(C)=O` [Example 3, 7β-[2-(2-aminooxazol-4-yl)-2-Z-(3,4-diacetoxybenzoylmethoxyimino)]acetamido-3-(1-carboxymethyl-1H-tetrazol-5-yl)thiomethyl-3-cephem-4-carboxylicacid], the MIC in experiment [1] is 12.5 µg/mL (≈ 16.5 µM); in experiment [2], 0.05 µg/mL (≈ 0.0658 µM); with Escherichia coli JC-2 it was 0.2 µg/mL (≈ 0.263 µM); in experiment [3], 0.2 µg/mL (≈ 0.263 µM); in experiment [4], < 0.05 µg/mL; against Proteus vulgaris GN-76, 1.56 µg/mL (≈ 2.05 µM).

The record behind these values is patent publication US4691014A, “Cephalosporin compounds” (Kaken Pharmaceutical Co., Ltd., priority 1984, dated 1987).
